Assay results from patent publication US11021470B2, “2-substituted quinazoline compounds comprising a substituted heterocyclic group and methods of use thereof” (Araxes Pharma LLC, priority 2015, dated 2021).

Biological target: T1, KRAS G12C 1-169, his-tagged protein, GDP-loaded (Homo sapiens, UniProt P01116, G12C)
T1 construct: KRAS G12C 1-169, his-tagged protein, GDP-loaded
Test: KRAS G12C covalent binding (% modification) by mass spectrometry, ten or three minute incubation
Method: Test compounds were prepared as 10 mM stock solutions in DMSO (Fisher cat #BP-231-100). KRAS G12C 1-169, his-tagged protein, GDP-loaded was diluted to […] in buffer (20 mM Hepes, 150 mM NaCl, 1 mM MgCl2). Compounds were tested for activity as follows:
Compounds were diluted to 50× final test concentration in DMSO in 96-well storage plates. Compound stock solutions were vortexed before use and observed carefully for any sign of precipitation. Dilutions were as follow: • For 100 μM final compound concentration, compounds were diluted to 5000 μM (5 μl 10 mM compound stock+5 μl DMSO and mixed well by pipetting. • For 30 μM final compound concentration, compounds were diluted to 1500 μM (3 μl 10 mM compound stock+17 μl DMSO) and mixed well by pipetting. • For 10 μM final compound concentration, compounds were diluted to 500 μM (2 μl 10 mM compound stock+38 μl DMSO) and mixed well by pipetting. 49 μl of the stock protein solution was added to each well of a 96-well PCR plate (Fisher cat #1423027). 1 μl of the diluted 50× compounds were added to appropriate wells in the PCR plate using 12-channel pipettor. Reactions were mixed carefully and thoroughly by pipetting up/down with a 200 μl multi-channel pipettor. […] 5 μl of 2% formic acid (Fisher cat #A117) in DI H2O was then added to each well followed by mixing with a pipette. The plate was then resealed with aluminum seal and stored on dry ice until analyzed as described below.
The above described assays were analyzed by mass spectrometry according to one of the following two procedures:
The MS instrument is set to positive polarity, 2 GHz resolution, and low mass (1700) mode and allowed to equilibrate for 30 minutes. The instrument is then calibrated, switched to acquisition mode and the appropriate method loaded.
After another 30 minute equilibration time, a blank batch (i.e., buffer) is run to ensure equipment is operating properly. The samples are thawed at 37° C. for 10 minutes, briefly centrifuged, and transfer to the bench top. Wells A1 and H12 are spiked with 1 μL 500 μM internal standard peptide, and the plates centrifuged at 2000×g for 5 minutes. The method is then run and masses of each individual well recorded.
The masses (for which integration data is desired) for each well are pasted into the platemap and exported from the analysis. Masses for the internal standards are exported as well. The data at 50 ppm is extracted for the +19 charge state, and identity of well A1 is assigned using the internal standard spike and integrated. Peak data is exported as a TOF list and the above steps are repeated individually, for the +20, 21, 22, 23, 24, and 25 charge states.
The masses and peak intensities of KRAS G12C protein species were measured using a Dionex RSLCnano system (Thermo Scientific) connected to a Q Exactive Plus mass spectrometer (Thermo Scientific).
[…] of sample was each loaded onto a Aeris™ 3.6 μm WIDEPORE C4 200 Å, LC Column 50×2.1 mm column maintained at 40° C. at a flow rate of 600 μl min^−1 with […] (0.1% formic acid in acetonitrile). The liquid chromatography conditions were 20% solvent B for 1 min, 20% to 60% solvent B for 1.5 min, 60% to 90% solvent for 0.5 min, 90% solvent B for 0.2 min, 90% to 20% solvent B for 0.2 min, and then equilibrated for 1.6 min before the following sample injection. The flow rate was maintained at 600 μl min^−1 throughout the sample analysis.
The mass spectrometer was operated in profile mode at a resolution of 17500, 5 microscans, using 50 msec max injection time and an AGC target of 1e6, and a full mass range from 800-1850 m/z was recorded. The HCD trapping gas was optimized for maximum sensitivity for intact proteins. The ionization method was electrospray ionization, which used a spray voltage of 4 kV, sheath gas flow set to 50 au, auxiliary gas flow set to 10 au and sweep gas flow set to 1 au. […]

[1] = covalent binding to KRAS G12C, % modification after a three minute incubation period
[2] = covalent binding to KRAS G12C after a ten minute incubation period

Compound	Binding % [1]	Binding % [2]
C=CC(=O)N1C[C@H](C)N(c2nc(OCCn3ccnc3CC)nc3c(F)c(-c4c(O)cccc4F)c(Cl)cc23)C[C@H]1C (atropisomer, axis not shown) [Compound 277, 1-((2R,5S)-4-(6-chloro-2-(2-(2-ethyl-1H-imidazol-1-yl)ethoxy)-8-fluoro-7-((S)-2-fluoro-6-hydroxyphenyl)quinazolin-4-yl)-2,5-dimethylpiperazin-1-yl)prop-2-en-1-one]	+++ (+++ indicates binding activity greater than 90%)	
C=CC(=O)N1C[C@H](C)N(c2nc(OCCc3nccc(C)n3)nc3c(F)c(-c4c(O)cccc4F)c(Cl)cc23)C[C@H]1C (atropisomer, axis not shown) [Compound 257, 1-((2R,5S)-4-(6-chloro-8-fluoro-7-((S)-2-fluoro-6-hydroxyphenyl)-2-(2-(4-methylpyrimidin-2-yl)ethoxy)quinazolin-4-yl)-2,5-dimethylpiperazin-1-yl)prop-2-en-1-one]	+++ (+++ indicates binding activity greater than 90%)	
C=CC(=O)N1C[C@H](C)N(c2nc(N3CC(N(C)C)C3)nc3c(F)c(-c4c(C)ccc5[nH]nc([N+](=O)[O-])c45)c(Cl)cc23)C[C@H]1C [Compound 297, 1-((2R,5S)-4-(6-chloro-2-(3-(dimethylamino)azetidin-1-yl)-8-fluoro-7-(5-methyl-3-nitro-1H-indazol-4-yl)quinazolin-4-yl)-2,5-dimethylpiperazin-1-yl)prop-2-en-1-one]	+ (+ indicates binding activity greater than 0% and up to 50%)	
C=CC(=O)N1C[C@H](C)N(c2nc(OCCCN3CC(F)(F)C3)nc3c(F)c(-c4cc(O)cc5ccccc45)c(Cl)cc23)C[C@H]1C [Compound 247, 1-((2R,5S)-4-(6-chloro-2-(3-(3,3-difluoroazetidin-1-yl)propoxy)-8-fluoro-7-(3-hydroxynaphthalen-1-yl)quinazolin-4-yl)-2,5-dimethylpiperazin-1-yl)prop-2-en-1-one]	+ (+ indicates binding activity greater than 0% and up to 50%)	
C=CC(=O)N1C[C@H](C)N(c2nc(OCCCN3CC(F)(F)C3)nc3c(F)c(-c4c(C)ccc5[nH]ncc45)c(Cl)cc23)C[C@H]1C [Compound 248, 1-((2R,5S)-4-(6-chloro-2-(3-(3,3-difluoroazetidin-1-yl)propoxy)-8-fluoro-7-(5-methyl-1H-indazol-4-yl)quinazolin-4-yl)-2,5-dimethylpiperazin-1-yl)prop-2-en-1-one]	++ (++ indicates binding activity from 50 to 90%)	
C=CC(=O)N1C[C@H](C)N(c2nc(N3CC(N(C)C)C3)nc3c(Cl)c(-c4c(O)cccc4F)c(Cl)cc23)C[C@H]1C [Compound 251, 1-((2R,5S)-4-(6,8-dichloro-2-(3-(dimethylamino)azetidin-1-yl)-7-(2-fluoro-6-hydroxyphenyl)quinazolin-4-yl)-2,5-dimethylpiperazin-1-yl)prop-2-en-1-one]	++ (++ indicates binding activity from 50 to 90%)	
C=CC(=O)N1C[C@H](C)N(c2nc(N3CC(N(C)C)C3)nc3c(F)c(-c4c(C)ccc5[nH]nc(C#N)c45)c(Cl)cc23)C[C@H]1C [Compound 292, 4-(4-((2S,5R)-4-acryloyl-2,5-dimethylpiperazin-1-yl)-6-chloro-2-(3-(dimethylamino)azetidin-1-yl)-8-fluoroquinazolin-7-yl)-5-methyl-1H-indazole-3-carbonitrile]	++ (++ indicates binding activity from 50 to 90%)	
C=CC(=O)N1C[C@H](C)N(c2nc(OCCn3cnnc3)nc3c(F)c(-c4c(O)cccc4F)c(Cl)cc23)C[C@H]1C (atropisomer, axis not shown) [Compound 280, 1-((2R,5S)-4-(2-(2-(4H-1,2,4-triazol-4-yl)ethoxy)-6-chloro-8-fluoro-7-((S)-2-fluoro-6-hydroxyphenyl)quinazolin-4-yl)-2,5-dimethylpiperazin-1-yl)prop-2-en-1-one]	+++ (+++ indicates binding activity greater than 90%)	
C=CC(=O)N1C[C@H](C)N(c2nc(N3CC(N(C)C)C3)nc3c(F)c(-c4c(C)ccc5cn[nH]c45)c(Cl)cc23)C[C@H]1C (atropisomer, axis not shown) [Compound 73, 1-((2R,5S)-4-((S)-6-chloro-2-(3-(dimethylamino)azetidin-1-yl)-8-fluoro-7-(6-methyl-1H-indazol-7-yl)quinazolin-4-yl)-2,5-dimethylpiperazin-1-yl)prop-2-en-1-one]		++ (++ indicates binding activity from 50 to 90%)
1-((2R,5S)-4-(6-chloro-2-(2-(diethylamino)ethoxy)-8-fluoro-7-((S)-6-methyl-1H-indazol-7-yl)quinazolin-4-yl)-2,5-dimethylpiperazin-1-yl)prop-2-en-1-one [Compound 157]	+ (+ indicates binding activity greater than 0% and up to 50%)	
C=CC(=O)N1C[C@H](C)N(c2nc(N3CC(N(C)C)C3)nc3c(F)c(-c4c(C)ccc5[nH]ccc45)c(Cl)cc23)C[C@H]1C [Compound 266, 1-((2R,5S)-4-(6-chloro-2-(3-(dimethylamino)azetidin-1-yl)-8-fluoro-7-(5-methyl-1H-indol-4-yl)quinazolin-4-yl)-2,5-dimethylpiperazin-1-yl)prop-2-en-1-one]	+++ (+++ indicates binding activity greater than 90%)	
C=CC(=O)N1C[C@H](C)N(c2nc(OCCN3CC(F)(F)C3)nc3c(F)c(-c4c(O)cccc4F)c(Cl)cc23)C[C@H]1C [Compound 89, 1-((2R,5S)-4-(6-chloro-2-(2-(3,3-difluoroazetidin-1-yl)ethoxy)-8-fluoro-7-((R)-2-fluoro-6-hydroxyphenyl)quinazolin-4-yl)-2,5-dimethylpiperazin-1-yl)prop-2-en-1-one]	+ (+ indicates binding activity greater than 0% and up to 50%)	
C=CC(=O)N1C[C@H](C)N(c2nc(N3CC(N(C)C)C3)nc3c(F)c(-c4c(C)ccc5[nH]nc(C(N)=O)c45)c(Cl)cc23)C[C@H]1C [Compound 296, 4-(4-((2S,5R)-4-acryloyl-2,5-dimethylpiperazin-1-yl)-6-chloro-2-(3-(dimethylamino)azetidin-1-yl)-8-fluoroquinazolin-7-yl)-5-methyl-1H-indazole-3-carboxamide]	++ (++ indicates binding activity from 50 to 90%)	
C=CC(=O)N1C[C@H](C)N(c2nc(N3CC(N(C)C)C3)nc3c(F)c(-c4c(O)cccc4F)c(Cl)cc23)C[C@H]1C [Compound 24, 1-((2R,5S)-4-(6-chloro-2-(3-(dimethylamino)azetidin-1-yl)-8-fluoro-7-(2-fluoro-6-hydroxyphenyl)quinazolin-4-yl)-2,5-dimethylpiperazin-1-yl)prop-2-en-1-one]		++ (++ indicates binding activity from 50 to 90%)
C=CC(=O)N1C[C@@H](C)N(c2nc(N3CC(N(C)C)C3)nc3c(F)c(-c4c(O)cccc4F)c(Cl)cc23)C[C@@H]1C [Compound 81, 1-((2S,5R)-4-(6-chloro-2-(3-(dimethylamino)azetidin-1-yl)-8-fluoro-7-(2-fluoro-6-hydroxyphenyl)quinazolin-4-yl)-2,5-dimethylpiperazin-1-yl)prop-2-en-1-one]		+ (+ indicates binding activity greater than 0% and up to 50%)
C=CC(=O)N1C[C@H](C)N(c2nc(OCC(C)(C)O)nc3c(F)c(-c4c(O)cccc4F)c(Cl)cc23)C[C@H]1C [Compound 281, 1-((2R,5S)-4-(6-chloro-8-fluoro-7-(2-fluoro-6-hydroxyphenyl)-2-(2-hydroxy-2-methylpropoxy)quinazolin-4-yl)-2,5-dimethylpiperazin-1-yl)prop-2-en-1-one]	++ (++ indicates binding activity from 50 to 90%)	
